Laboratory results published in US6403637B1, “Methods of modulating matrix metalloproteinase activity and uses thereof” (priority 1999, dated 2002).

Legend:
[1] = system: MEF-1 mouse embryo fibroblasts; experiment: Competition for 125I collagenase-3 binding in MEF-1 cells; conditions: competitor at 200-, 400- and 800-fold excess over 125I mouse collagenase-3; ± S.E.M., triplicate wells
Method: (§1) For all binding experiments, cells were seeded into 2.0 cm^2 wells. After the cells reached approximately 95% confluence, the medium was replaced with fresh medium containing 1 mg/ml BSA and the cells were assayed for binding 4 h later. The cells were first washed with maintenance medium, then incubated in the same medium with 0.01% Tween 80 containing ^125I-rat collagenase-3 or other iodinated ligands at 4° C. for 2 h. Non-specific binding was assessed by adding a 50-100-fold excess of cold ligand to half the wells, while an equivalent volume of buffer was added to the remaining wells. After incubation, the wells were washed three times with ice-cold MEM (0.5 ml). The cells were then lysed with 500 μl of 1 M NaOH and the lysates were counted on a gamma counter. Protein labeling with ^125I was done using the chloramine T method (Greenwood et al., 1963, Biochem. J. 89:114). The proteins had specific activities ranging from 9 to 27 μCi/μg.
(§2) In order to exclude the possibility that the collagenase-3 receptor is the low density lipoprotein receptor-related protein, two cell lines of mouse embryo fibroblasts were used: wild-type (MEF-1) and low density lipoprotein receptor-related protein-null (MEF-2) (both provided by Dr. Joachim Herz). These cells were cultured in Dulbecco's MEM with 10% FBS, 10 units penicillin/ml, 10 μg streptomycin/ml.
(§3) These proteins were used as competitors in a series of binding assays in UMR cells using ^125I mouse collagenase-3. Radioactive labeling and binding assays were performed as in Example 1.
(§4) This region thus appears to be the high-affinity binding domain recognized by the collagenase-3 receptor, and the other two domains (SEQ ID's NO:1 and 3) may be recognized by the lower-affinity low density lipoprotein receptor-related protein or may alternatively stabilize the interaction with the collagenase-3 receptor. To investigate the contribution of each receptor, two mouse embryo fibroblast (MEF) cell lines were utilized. The MEF-1 cell line is known to express both the collagenase-3 receptor and the low density lipoprotein receptor-related protein, while the MEF-2 cell line has been rendered low density lipoprotein receptor-related protein-null. […] This hypothesis is confirmed by the data on Table 4.

UMR 106-01 cells [2] = experiment: Competition for 125I collagenase-3 binding in UMR 106-01 cells; parameters: species or system rat; conditions: for competition efficiency compared to full-length collagenase-3: 125I mouse collagenase-3; for percent of mouse collagenase-3 binding, UMR-106-01: competitor at 200-, 400- and 800-fold excess over 125I mouse collagenase-3, ± S.E.M., seven pooled experiments; for competition for 125I mouse collagenase-3 binding (in words): compared to full-length MMP-13
Method: as §1, §3

[3] = system: UMR 106-01 rat osteosarcoma cells; experiment: Binding of 125I-labeled proteinases to UMR 106-01 cells; conditions: for binding to UMR cells (in words): 125I-labeled protein, direct binding; for Specific binding: 125I-labeled ligand 8 nM, means ± SEM for triplicate wells
UMR 106-01 cells [4] = experiment: Internalization assay in UMR 106-01 cells; assay type: cell-based, rat
Method: Although the low density lipoprotein receptor-related protein is not required for rat collagenase-3 binding to the cell, it might be required for ligand internalization. Therefore, internalization assays were performed with ^125I-rat collagenase-3 using MEF-1 and MEF-2 cells as follows. After binding 125I-rat labeled proteins as above, the cells were washed three times with cold modified Eagle's media (0.5 ml) to remove unbound ligand. The cells were then warmed to 37° C. by the addition of prewarmed modified Eagle's media (0.25 ml), and incubated at 37° C. for selected intervals. At each time point, the media were collected, and the cells were washed once with ice-cold MEM, then incubated with 0.25% Pronase®-E in modified Eagle's media for 15 min at 4° C. to strip cell surface proteins. The cell suspension was then centrifuged, and the radioactivity associated with cell pellets (defining internalized ^125I-proteins) was measured at each time point.
It is known that RAP inhibits internalization of ligands by the low density lipoprotein receptor-related protein (Kounnas et al., 1996, J. Biol. Chem 271:6523). Therefore, internalization assays were performed using ^125I-labeled rat collagenase-3 as a ligand and receptor-associated protein as a competitor. Human receptor-associated protein from the pGEX-receptor-associated protein expression vector (provided by Dr. Joachim Herz, University of Texas Southwestern Medical Center, Dallas, Tex.) was expressed in bacteria and prepared as described in Herz et al., 1991, J. Biol. Chem. 266:21232.
To investigate the mechanism by which RAP regulates internalization of collagenase-3, an experiment was performed where excess unlabeled RAP or rat collagenase-3 was prebound to UMR 106-01 cells. Binding and internalization of ^125I-labeled rat collagenase-3 and RAP were then allowed to proceed.

[5] = system: MEF-2 (LRP null) mouse embryo fibroblasts; experiment: Competition for 125I collagenase-3 binding in MEF-2 (LRP null) cells; conditions: for percent of mouse collagenase-3 binding, MEF-2 (LRP null): competitor at 200-, 400- and 800-fold excess over 125I mouse collagenase-3, ± S.E.M., triplicate wells; for competition for receptor binding in MEF-2 cells (in words): compared to MEF-1 cells
Method: as §1, §2, §3, §4

collagenase-3 receptor = molecular target: T1, collagenase-3 receptor (Rattus norvegicus, UniProt Q4TU93); experiment: Scatchard analysis of 125I-mMMP-13 binding to UMR 106-01 cells, high affinity site
T1 construct: endogenous in cells; host or cells: UMR 106-01 rat osteosarcoma cells
T1 sequence (Q4TU93 31-1480): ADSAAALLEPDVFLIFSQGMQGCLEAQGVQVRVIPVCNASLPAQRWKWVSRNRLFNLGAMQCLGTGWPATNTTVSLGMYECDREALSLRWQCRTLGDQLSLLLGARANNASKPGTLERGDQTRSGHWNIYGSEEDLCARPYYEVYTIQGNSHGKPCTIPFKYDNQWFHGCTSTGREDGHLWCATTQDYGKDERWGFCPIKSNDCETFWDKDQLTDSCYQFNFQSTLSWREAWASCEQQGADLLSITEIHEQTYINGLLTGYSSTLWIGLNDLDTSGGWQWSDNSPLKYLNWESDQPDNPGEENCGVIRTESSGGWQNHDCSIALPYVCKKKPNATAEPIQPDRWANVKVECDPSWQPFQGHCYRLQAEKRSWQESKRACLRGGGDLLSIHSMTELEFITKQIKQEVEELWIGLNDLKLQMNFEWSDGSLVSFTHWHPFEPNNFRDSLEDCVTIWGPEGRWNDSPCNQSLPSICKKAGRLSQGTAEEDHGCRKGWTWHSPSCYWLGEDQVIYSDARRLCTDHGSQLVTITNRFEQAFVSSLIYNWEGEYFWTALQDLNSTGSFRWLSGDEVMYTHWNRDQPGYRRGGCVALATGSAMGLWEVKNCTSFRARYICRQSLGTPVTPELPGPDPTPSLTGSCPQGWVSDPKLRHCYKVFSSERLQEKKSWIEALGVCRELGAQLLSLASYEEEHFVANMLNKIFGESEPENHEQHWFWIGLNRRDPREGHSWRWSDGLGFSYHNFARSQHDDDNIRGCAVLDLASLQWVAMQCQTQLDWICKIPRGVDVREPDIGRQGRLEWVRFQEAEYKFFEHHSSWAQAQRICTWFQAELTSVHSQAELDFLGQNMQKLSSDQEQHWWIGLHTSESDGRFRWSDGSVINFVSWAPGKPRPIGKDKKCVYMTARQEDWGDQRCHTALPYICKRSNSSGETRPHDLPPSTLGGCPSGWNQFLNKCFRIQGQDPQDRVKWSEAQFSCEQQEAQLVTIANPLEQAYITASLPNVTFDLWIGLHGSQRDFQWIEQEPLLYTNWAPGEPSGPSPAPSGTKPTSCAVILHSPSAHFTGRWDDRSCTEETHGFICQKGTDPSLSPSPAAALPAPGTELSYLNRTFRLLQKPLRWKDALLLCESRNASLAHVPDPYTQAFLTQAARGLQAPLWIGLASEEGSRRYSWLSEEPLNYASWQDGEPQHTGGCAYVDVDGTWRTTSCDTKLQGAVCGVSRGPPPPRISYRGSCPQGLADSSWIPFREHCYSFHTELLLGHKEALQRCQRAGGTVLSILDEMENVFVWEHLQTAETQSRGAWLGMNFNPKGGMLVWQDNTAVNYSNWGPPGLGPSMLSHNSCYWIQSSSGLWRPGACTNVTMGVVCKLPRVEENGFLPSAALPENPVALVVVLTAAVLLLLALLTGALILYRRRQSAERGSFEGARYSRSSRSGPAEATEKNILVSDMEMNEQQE
Method: as §1
(§5) The recombinant mouse MMP-13 has essentially equivalent catalytic, kinetic, and binding activity as the rat MMP-13 homolog utilized in Example 1.

[6] = molecular target: T2, low density lipoprotein receptor-related protein (Rattus norvegicus, UniProt G3V928); experiment: Scatchard analysis of 125I-mMMP-13 binding to UMR 106-01 cells, lower affinity site
T2 construct: endogenous in cells; host or cells: UMR 106-01 rat osteosarcoma cells
Method: as §1, §5

T2 sequence (G3V928 20-3944 limits assumed): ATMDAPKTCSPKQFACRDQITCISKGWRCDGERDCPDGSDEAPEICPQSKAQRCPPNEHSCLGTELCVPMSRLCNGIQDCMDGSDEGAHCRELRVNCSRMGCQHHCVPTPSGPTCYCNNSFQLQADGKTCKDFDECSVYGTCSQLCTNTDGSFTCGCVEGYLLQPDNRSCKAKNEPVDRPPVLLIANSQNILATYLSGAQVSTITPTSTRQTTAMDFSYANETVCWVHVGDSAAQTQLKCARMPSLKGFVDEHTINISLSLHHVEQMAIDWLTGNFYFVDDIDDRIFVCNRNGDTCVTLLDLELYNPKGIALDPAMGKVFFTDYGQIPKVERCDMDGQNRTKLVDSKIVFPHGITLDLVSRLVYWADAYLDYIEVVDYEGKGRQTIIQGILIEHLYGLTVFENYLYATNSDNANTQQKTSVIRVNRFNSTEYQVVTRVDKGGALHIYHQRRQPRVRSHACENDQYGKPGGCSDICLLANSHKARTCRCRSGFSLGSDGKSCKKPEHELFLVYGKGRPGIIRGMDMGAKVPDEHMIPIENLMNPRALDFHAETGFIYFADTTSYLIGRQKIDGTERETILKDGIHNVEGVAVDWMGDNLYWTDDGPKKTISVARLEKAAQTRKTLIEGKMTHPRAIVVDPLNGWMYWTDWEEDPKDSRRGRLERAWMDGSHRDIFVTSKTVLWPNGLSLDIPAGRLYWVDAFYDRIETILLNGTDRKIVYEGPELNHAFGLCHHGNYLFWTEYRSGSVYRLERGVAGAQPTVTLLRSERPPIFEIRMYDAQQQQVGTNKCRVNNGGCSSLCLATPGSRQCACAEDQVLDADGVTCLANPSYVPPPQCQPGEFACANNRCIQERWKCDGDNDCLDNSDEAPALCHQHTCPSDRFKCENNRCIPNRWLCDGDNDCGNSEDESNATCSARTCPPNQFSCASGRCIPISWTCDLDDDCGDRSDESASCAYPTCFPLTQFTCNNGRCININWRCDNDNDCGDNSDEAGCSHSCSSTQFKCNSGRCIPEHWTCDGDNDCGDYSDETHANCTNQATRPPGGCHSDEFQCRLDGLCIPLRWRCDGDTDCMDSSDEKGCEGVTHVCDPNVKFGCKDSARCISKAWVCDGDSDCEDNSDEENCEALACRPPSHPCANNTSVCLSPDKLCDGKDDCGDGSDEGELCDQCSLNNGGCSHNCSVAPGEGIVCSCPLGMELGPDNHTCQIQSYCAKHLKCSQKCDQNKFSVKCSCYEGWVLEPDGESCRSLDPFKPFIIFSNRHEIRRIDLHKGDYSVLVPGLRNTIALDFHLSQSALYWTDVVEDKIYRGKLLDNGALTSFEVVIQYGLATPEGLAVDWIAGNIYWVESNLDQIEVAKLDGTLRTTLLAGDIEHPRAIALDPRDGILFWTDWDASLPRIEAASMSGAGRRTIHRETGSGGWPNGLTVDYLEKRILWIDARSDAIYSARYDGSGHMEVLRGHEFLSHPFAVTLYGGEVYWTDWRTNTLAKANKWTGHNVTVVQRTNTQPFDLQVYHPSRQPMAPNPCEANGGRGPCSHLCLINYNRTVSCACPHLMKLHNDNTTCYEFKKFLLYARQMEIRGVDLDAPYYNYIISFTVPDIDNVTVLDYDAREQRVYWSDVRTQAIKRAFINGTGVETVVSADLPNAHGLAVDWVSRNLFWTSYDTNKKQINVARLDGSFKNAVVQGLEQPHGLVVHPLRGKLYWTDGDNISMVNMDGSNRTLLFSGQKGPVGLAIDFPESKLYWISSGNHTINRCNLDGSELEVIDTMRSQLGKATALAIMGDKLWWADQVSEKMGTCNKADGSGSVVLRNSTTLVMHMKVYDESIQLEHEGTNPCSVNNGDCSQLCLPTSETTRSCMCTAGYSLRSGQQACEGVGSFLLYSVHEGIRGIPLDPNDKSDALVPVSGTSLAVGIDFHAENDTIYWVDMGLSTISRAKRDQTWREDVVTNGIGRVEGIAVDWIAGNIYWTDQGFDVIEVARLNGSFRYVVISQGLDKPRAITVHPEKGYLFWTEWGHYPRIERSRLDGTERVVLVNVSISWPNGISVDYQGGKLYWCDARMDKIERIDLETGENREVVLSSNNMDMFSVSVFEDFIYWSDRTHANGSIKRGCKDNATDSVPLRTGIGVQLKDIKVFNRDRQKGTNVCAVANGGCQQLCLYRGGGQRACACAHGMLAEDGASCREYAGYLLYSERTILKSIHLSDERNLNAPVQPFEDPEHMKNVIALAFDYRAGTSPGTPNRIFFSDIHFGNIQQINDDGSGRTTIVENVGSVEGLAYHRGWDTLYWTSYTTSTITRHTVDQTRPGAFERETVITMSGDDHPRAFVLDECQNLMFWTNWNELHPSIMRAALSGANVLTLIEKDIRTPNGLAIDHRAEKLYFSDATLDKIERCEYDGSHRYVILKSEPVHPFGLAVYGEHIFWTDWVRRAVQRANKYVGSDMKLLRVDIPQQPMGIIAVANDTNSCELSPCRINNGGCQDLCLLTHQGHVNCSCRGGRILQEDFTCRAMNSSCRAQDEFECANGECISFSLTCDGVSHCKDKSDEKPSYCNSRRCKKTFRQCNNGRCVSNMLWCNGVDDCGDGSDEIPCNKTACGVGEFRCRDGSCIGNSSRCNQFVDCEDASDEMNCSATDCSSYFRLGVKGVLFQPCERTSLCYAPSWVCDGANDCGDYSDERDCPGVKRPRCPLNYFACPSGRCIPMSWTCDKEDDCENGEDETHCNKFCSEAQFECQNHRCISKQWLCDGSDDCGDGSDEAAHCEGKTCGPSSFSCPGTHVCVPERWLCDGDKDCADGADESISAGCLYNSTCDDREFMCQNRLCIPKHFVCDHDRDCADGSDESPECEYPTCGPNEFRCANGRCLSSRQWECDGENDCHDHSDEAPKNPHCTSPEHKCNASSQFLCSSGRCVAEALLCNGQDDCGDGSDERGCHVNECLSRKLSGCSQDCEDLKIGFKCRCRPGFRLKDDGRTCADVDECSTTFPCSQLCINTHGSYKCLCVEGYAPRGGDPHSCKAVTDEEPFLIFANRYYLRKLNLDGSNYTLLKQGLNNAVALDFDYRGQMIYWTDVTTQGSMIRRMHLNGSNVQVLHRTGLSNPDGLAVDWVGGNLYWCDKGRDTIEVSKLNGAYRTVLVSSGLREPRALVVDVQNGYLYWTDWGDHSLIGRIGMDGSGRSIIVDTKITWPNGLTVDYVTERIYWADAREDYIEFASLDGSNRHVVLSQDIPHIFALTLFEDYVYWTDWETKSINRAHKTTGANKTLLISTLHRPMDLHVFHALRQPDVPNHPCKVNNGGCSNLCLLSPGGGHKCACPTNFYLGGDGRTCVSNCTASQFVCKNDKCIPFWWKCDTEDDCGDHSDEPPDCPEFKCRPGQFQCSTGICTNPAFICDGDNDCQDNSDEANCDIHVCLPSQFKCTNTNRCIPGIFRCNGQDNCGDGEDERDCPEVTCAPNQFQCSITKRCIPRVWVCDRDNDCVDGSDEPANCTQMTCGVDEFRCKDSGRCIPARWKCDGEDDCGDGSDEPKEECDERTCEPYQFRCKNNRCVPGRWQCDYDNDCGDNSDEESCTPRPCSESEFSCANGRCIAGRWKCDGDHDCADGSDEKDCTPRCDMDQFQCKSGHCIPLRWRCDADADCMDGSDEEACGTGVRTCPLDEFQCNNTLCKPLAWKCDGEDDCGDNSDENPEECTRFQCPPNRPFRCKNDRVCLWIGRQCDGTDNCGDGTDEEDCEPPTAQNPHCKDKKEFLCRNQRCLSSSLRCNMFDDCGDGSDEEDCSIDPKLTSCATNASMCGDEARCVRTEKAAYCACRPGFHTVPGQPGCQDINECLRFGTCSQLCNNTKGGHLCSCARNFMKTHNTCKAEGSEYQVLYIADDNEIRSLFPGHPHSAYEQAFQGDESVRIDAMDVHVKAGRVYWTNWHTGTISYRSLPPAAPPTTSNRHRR
T2 sequence (G3V928 3945-4545 partner limits assumed): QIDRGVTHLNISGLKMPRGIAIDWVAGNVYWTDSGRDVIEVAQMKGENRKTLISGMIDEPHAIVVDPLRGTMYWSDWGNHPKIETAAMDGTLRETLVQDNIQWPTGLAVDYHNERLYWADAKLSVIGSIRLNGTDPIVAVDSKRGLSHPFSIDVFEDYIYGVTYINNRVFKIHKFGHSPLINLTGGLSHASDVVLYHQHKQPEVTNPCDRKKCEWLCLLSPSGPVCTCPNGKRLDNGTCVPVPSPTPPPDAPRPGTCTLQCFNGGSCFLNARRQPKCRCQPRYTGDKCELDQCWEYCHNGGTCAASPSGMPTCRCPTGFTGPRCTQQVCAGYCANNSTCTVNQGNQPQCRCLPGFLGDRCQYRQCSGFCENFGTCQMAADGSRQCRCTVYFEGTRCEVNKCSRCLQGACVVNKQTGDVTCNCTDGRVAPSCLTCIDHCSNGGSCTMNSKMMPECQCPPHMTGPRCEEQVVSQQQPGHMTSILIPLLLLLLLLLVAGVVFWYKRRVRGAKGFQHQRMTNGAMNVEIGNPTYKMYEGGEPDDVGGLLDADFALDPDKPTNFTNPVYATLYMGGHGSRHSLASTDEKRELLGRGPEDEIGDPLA

| Substance | percent of mouse collagenase-3 binding, MEF 1 [1] [%] | competition efficiency compared to full-length collagenase-3 (UMR 106-01 cells [2]) | percent of mouse collagenase-3 binding, UMR-106-01 (UMR 106-01 cells [2]) [%] | binding to UMR cells (in words) [3] | percent of mouse collagenase-3 binding, MEF-2 (LRP null) [5] [%] | other results |
| --- | --- | --- | --- | --- | --- | --- |
| H/M (229-472): chimeric collagenase: human MMP-1 N-terminus, mouse MMP-13 residues 229-472 | 2.2 ± 1.1 | < 17% | 16.5 ± 5.8 |  |  |  |
| HM (141-228)/H: chimeric collagenase: mouse MMP-13 residues 141-228 in human MMP-1 | 94.3 ± 4.7 | 90% | 89.9 ± 5.3 | capable of binding specifically to UMR cells | 75.1 ± 13.7 | endocytosis of iodinated construct compared to full-length collagenase-3 (in words) (UMR 106-01 cells [4]): significantly reduced endocytosis |
| HM (166-228)/H: chimeric collagenase: mouse MMP-13 residues 166-228 in human MMP-1 | 80.8 ± 6.0 |  | 67.8 ± 3.4 |  | 97.2 ± 1.7 | competition for 125I mouse collagenase-3 binding (in words) (UMR 106-01 cells [2]): impaired ability to compete for receptor binding |
| HM/M (141-472): chimeric collagenase: human MMP-1 N-terminus, mouse MMP-13 residues 141-472 | 84.4 ± 6.1 |  | 95.7 ± 3.9 |  |  | competition for receptor binding in MEF-2 cells (in words) [5]: significantly impaired ability to compete for receptor binding |
| Human MMP-1: human fibroblast collagenase-1 (interstitial collagenase) |  |  | 0 |  |  | Specific binding [3]: 0.1 ± 1.4 fmol/2.6 × 10^5 cells |
| Human MMP-3: human stromelysin-1 (MMP-3) |  |  |  |  |  | Specific binding [3]: 0.0 ± 0.0 fmol/2.6 × 10^5 cells |
| M (1-228)/H: chimeric collagenase: mouse MMP-13 residues 1-228, remainder human MMP-1 | 85.9 ± 10.5 | greater than 90% | 85.3 ± 3.0 | capable of binding specifically to UMR cells | 41.9 ± 9.7 | endocytosis of iodinated construct compared to full-length collagenase-3 (in words) (UMR 106-01 cells [4]): significantly reduced endocytosis; competition for receptor binding in MEF-2 cells (in words) [5]: impaired binding in MEF-2 cells |
| MMP-13 (1-265): C-terminally truncated mouse collagenase-3 | 100 |  | 100 |  |  | competition for 125I mouse collagenase-3 binding (in words) (UMR 106-01 cells [2]): essentially equivalent manner compared to full-length MMP-13 |
| MMP-13 (1-472): recombinant full-length mouse collagenase-3, residues 1-472 |  |  |  | binds equally as well as the rat enzyme |  | binding to UMR cells (in words) ([3]; listed as mMMP-13): specifically and saturably; Bmax, high affinity site (collagenase-3 receptor; Scatchard analysis): 73.9 pmol/10^5 cells; Bmax, high affinity site (collagenase-3 receptor; computer analysis with the GraphPad InPlot program): 75 pmol/10^5 cells; Bmax, lower affinity site ([6]; Scatchard analysis): 660 pmol/10^5 cells; Bmax, lower affinity site ([6]; computer analysis): 834 pmol/10^5 cells |
